# Reference: ChEMBL document CHEMBL1157539, “Thousands of chemical starting points for antimalarial lead identification” (Nature, 2010)
# “And” between values parts separate entries of the source, which are not always exact repeats. Equal entries are not always repeated.
# System: Plasmodium falciparum
# Test: GSK_TCMDC: Inhibition of Plasmodium falciparum 3D7 in whole erythrocytes, using parasite LDH activity as an index of growth.
# Type: functional, organism-based
Structure (SMILES),"XC50 (Plasmodium falciparum, 3D7)",XC50
COc1ccc2nccc(NC(=O)C3(O)CCC(NCc4ncc5c(c4Cl)OCCO5)CC3)c2n1 (stereo not drawn),0.254 µM,
CC(C)N1CCN(C(CN2CCN(CCCOc3ccc4ccccc4c3)CC2)c2ccc(F)cc2)CC1 (stereo not drawn),0.581 µM,
COc1ccccc1CNC(=O)c1ccc(N2CCN(c3ccncc3)CC2)cn1,1.36 µM,
CN1CCc2cc(Br)c(O)cc2C1Cc1ccccc1Cl (stereo not drawn),0.667 µM,
CC(CN(C)C)C(=O)Nc1cccc(-c2ccc(-c3nc4cc(F)ccc4[nH]3)cc2)c1 (stereo not drawn),0.653 µM,
O=C(Nc1cccc(-c2cccc(-c3nc4cc(C(F)(F)F)ccc4[nH]3)c2)c1)c1csnn1,0.238 µM,
COCCNc1nc(N2CCC(CNC(=O)c3ccc(-c4ccc(C(=O)N(C)C)cc4C)cc3)CC2)nc2cc(OC)c(OC)cc12,1.02 µM,
COc1c(C2CCN(CCCCNC(=O)c3ccc(-c4ccc(NC(=O)C(F)(F)F)cc4)cc3)CC2)ccc2c1CCCC2,1 µM,
CN(C)CCn1c(N)c(-c2nc3ccccc3s2)c2nc(C#N)c(C#N)nc21,1.01 µM,
N=C(N)CCN(Cc1ccc(Cl)cc1)c1ccc(Cl)cc1,1.06 µM,
O=C(Nc1cccc(C(F)(F)F)c1)Nc1cc(F)c(F)cc1Cl,1.96 µM,
CCCc1cc(Cc2cnc(N)nc2N)ccc1OCCCCCC(=O)OCC,0.495 µM,
O=C(NCC1CCN(Cc2ccc3c(c2)OCCO3)C1)c1cc(-c2ccccc2F)cs1 (stereo not drawn),1.02 µM,
CC(C)CCNc1nc(NCCc2ccccc2)c2cc(O)ccc2n1,0.238 µM,
COc1ccc(NC(=O)/C=C/c2ccc(-c3ccc(-c4noc(C)n4)cc3)cc2)cc1OCCN(C)C,1.37 µM,
COc1ccc(CNc2nccc3ccc(-c4ccc5nccn5c4)cc23)cc1,0.882 µM,
N=C(N)c1ccc(OCc2cccc(COc3ccc(C(=N)N)cc3I)c2)c(I)c1,0.337 µM,
N#Cc1ccc(-c2ccc(C(=O)NCCCCN3CCC(c4ccncc4)CC3)cc2)cc1,0.813 µM,
CC(C)CC(C)NC(=O)C1Cc2c([nH]c3cc(Cl)ccc23)C2(CCN(CCc3ccccc3)CC2)N1 (stereo not drawn),0.815 µM,
Cc1nc2c(s1)c(=O)cc(CCc1cccc(F)c1F)n2CC(=O)N(Cc1ccc(-c2ccc(C(F)(F)F)cc2)cc1)C1CCN(C(C)C)CC1,0.767 µM,
Cc1cc(NCc2ccccc2)nc2cc(O)ccc12,0.784 µM,
NCC1(c2nc(-c3ccc(Cl)c(O)c3)c(-c3ccncc3)[nH]2)CCCCC1,0.744 µM,
CCN(CC)CCNc1nccc(N(C)c2ccc(NC(=O)Nc3cc(C(F)(F)F)ccc3F)cc2)n1,0.549 µM,
CC1CN(c2ccc(C(=O)NCC3CC3)cc2NC(=O)OCc2ccccc2)CC(C)O1 (stereo not drawn),1.3 µM,

Structure (SMILES),"XC50 (Plasmodium falciparum, 3D7)",XC50
O=C(Nc1cccc(Cl)c1N1CCOCC1)C(Cl)(Cl)Cl,0.983 µM,
Cc1nc(-c2ccc(-c3ccc(NC(=O)Nc4ccc(I)c(OCCN(C)C)c4)cc3)c(C)c2)no1,0.372 µM,
Cc1cc(NC(=O)Nc2ccc3sccc3c2)c2ccccc2n1,0.53 µM,
Nc1cccc(-c2ccc3ccnc(N)c3c2)c1,0.796 µM,
Cc1ccc(O)cc1Nc1ccnc2cc(-c3ccccc3)ccc12,1.07 µM,
O=C1CSc2ccc(CNC3CCN(CCc4c(Cl)cnc5ccc(F)cc45)CC3)nc2N1,0.427 µM,
O=c1cc(NCCCNCc2ccccc2-c2ccccc2)[nH]c2ccccc12,0.975 µM,
O=C(/C=C/c1ccc(Cl)c(Cl)c1)NC1CCC(CN2CCC(c3c[nH]c4ccc(O)cc34)CC2)CC1 (stereo not drawn),,0.417 µM and 0.14 µM
OC(CNc1ccnc(Nc2cccc(Cl)c2)n1)c1ccc(C(F)(F)F)cc1 (stereo not drawn),0.768 µM,
Cc1nc2ccccn2c1C1(O)C(=O)Nc2c(Cl)cc(Cl)cc21 (stereo not drawn),1.59 µM,
CCCCSc1c(CNCCCCCCNCc2ccc3ccccc3c2SCCCC)ccc2ccccc12,0.999 µM,
Cc1cccc2nc(-c3ccc(-c4ccc(NC(=O)C(C)CN(C)C)cc4)cc3)[nH]c12 (stereo not drawn),0.681 µM,
CN(C)c1ccc2nc(N)nc(N)c2c1Cl,0.475 µM,
COc1ccc(Nc2ncc3c(-c4ccc(NC(=O)c5cccc(C(F)(F)F)c5)cc4)c[nH]c3n2)cc1OC,1.03 µM,
Cc1ccc2[nH]c(-c3cc(-c4cccc(C#N)c4)cnc3N)nc2c1,0.117 µM,
CC(c1cccc(Nc2nccc(-c3c(-c4cccc(NC(=O)c5c(F)cccc5F)c4)nn4ccccc34)n2)c1)S(C)(=O)=O (stereo not drawn),0.0575 µM,
CC(CN1CCN(C)CC1)C(=O)Nc1cccc(-c2ccc(-c3nc4cc(C(F)(F)F)ccc4[nH]3)cc2)c1 (stereo not drawn),0.607 µM,
COc1ccc2nc(Nc3nc(-c4ccccn4)cs3)sc2c1,1.12 µM,
CN(C)CCOc1cc(NC(=O)c2ccc(-c3ccc(Cl)cc3Cl)cc2)ccc1-c1ccccc1,0.906 µM,
Cc1cn(CC(=O)Nc2cccc(-c3cccc(-c4nc5cc(C(F)(F)F)ccc5[nH]4)c3)c2)c(=O)[nH]c1=O,0.681 µM,
O=C(/C=C/c1ccc(O)cc1)NC1CCC(CN2CCC(c3c[nH]c4ccccc34)CC2)CC1 (stereo not drawn),0.744 µM,
[O-][S+]1c2ccccc2Sc2ccccc21,0.168 µM,
COc1ccc(Nc2nccc(-c3ccc4ccnc(NCCCCN)c4c3)n2)cc1,0.75 µM,
O=C(NC1CCN(Cc2ccc(F)cc2)CC1)c1ccc(-c2cccc(C(F)(F)F)c2)s1,1.36 µM,
